Earlier results, collected in US12064440B2, “Ophthalmic gel compositions of bimatoprost and timolol and associated methods” (Somerset Therapeutics, LLC, priority 2022, dated 2024).

Details: under certain conditions

CC(C)OC(=O)CCC/C=C\C[C@@H]1[C@@H](CC[C@@H](O)CCc2ccccc2)[C@H](O)C[C@@H]1O [latanoprost]
active pharmaceutical ingredient (API) stability: degradation

CC(C)OC(=O)CCC/C=C\C[C@@H]1[C@@H](/C=C/[C@@H](O)COc2cccc(C(F)(F)F)c2)[C@H](O)C[C@@H]1O [travoprost]
active pharmaceutical ingredient (API) stability: degradation

CCNC(=O)CCC/C=C\C[C@@H]1[C@@H](/C=C/[C@@H](O)CCc2ccccc2)[C@H](O)C[C@@H]1O [bimatoprost, (Z)-7-[(1R, 2R, 3R, 5S)-3,5-Dihydroxy-2-[(1E, 3S)-3-hydroxy-5-phenyl-1-pentenyl]cyclopentyl]-5-N-ethylheptenamid]
active pharmaceutical ingredient (API) stability: remain stable
